Assays:
C.albicans 855–653 = assay: Fungistatic activity (MIC), dilution method; format: cell-based; settings: Candida albicans; C.albicans 855–653, fungistatic activity; read-out: Minimal Inhibiting Concentration (MIC)
Experimental: In vitro bacteriostatic and fungistatic activities of the macrocycles were evaluated against pathogenic representatives of Gram-positive bacteria (Staphylococcus aureus 209p, Bacillus cereus 8035), Gram-negative bacteria (Pseudomonas aeruginosa 9027, Escherichia coli F-50), and yeast (Trichophyton mentagrophytes var. gypseum 1773, Aspergillus niger BKMF-1119, Candida albicans 885–653). Minimal inhibitory concentrations (MICs) were estimated by conventional dilution methods for bacteria and fungi. The antibacterial and antifungal assays were performed in Hottinger broth (HiMe-dia Laboratories Pvt. Ltd. Mumbai, India) and Sabouraud dextrose broth (HiMedia Laboratories Pvt. Ltd.) (bacteria 3 × 10^5 cfu/mL and yeast 2 × 10^4 cfu/mL). The bactericidal and fungicidal activities were determined as described earlier. The tests were repeated three times.

[1] = Zeta potential by electrophoretic light scattering; format: physicochemical; settings: water solution, 25 °C; GCR-2 in the presence of two-fold excess MG; concentration not given
Experimental: Formation of aggregates with increasing GCR-1 concentration was confirmed by the DLS method. In aqueous 1 mM GCR-1 solutions the formation of small particles with hydrodynamic diameter of 2.9 nm was observed (Figure 4a). This size is much more similar to that of a single molecule that to that of an aggregate. However, the bimodal distribution with peaks at 120 nm and 504 nm occurs for solution with 50 mM GCR-1. This could be attributed to the formation different stacked structures by head-to-head or head-to-tail interaction between GCR-1 molecules. […] Zeta-potential of GCR-1 aggregates obtained by electrophoretic light scattering in solution was −56.8 mV that correspond to sufficiently stable systems. Negative value was caused by dissociation of sulfonate groups of GCR-1 lower rim in aqueous medium. To confirm the morphology and dimension of the GCR-1 aggregates, TEM image was recorded (Figure 5a), where it was shown that GCR-1 molecules were assembled into non-well-defined large nanoparticles. The probable reason for such high polydispersity is multiple supramolecular interactions, such as Coulombic interactions between oppositely charged rims through head-to-tail self-assembly, hydrogen bonding between hydroxyl groups by head-to-head joining and π-π stacking between aromatic units of neighboring macrocycles (Figure 6a). […]

[2] = Dynamic light scattering, hydrodynamic diameter; format: physicochemical; settings: water
[3] = Hydrophobic dye (Sudan I) solubilization; format: physicochemical; settings: water solution; GCR-2 with two-fold excess of MG; absorption band at 500 nm region
Experimental: The method of solubilization of the hydrophobic dye Sudan I was used for determination of formed aggregates’ morphology. The appearance of an absorption band characteristic of a lipophilic substance in an aqueous solution of a specific component indicates the formation of a hydrophobic core of the component aggregates, like in surfactant micelles, which solubilizes the hydrophobic substrate.
Dependence of GCR-2 at 500 nm on its concentration also loses linearity at higher 7.2 mM (Figure 3b). This is because the dissolved molecules of GCR-2 aggregate that confirms by conductometry and tensiometry. The obtained values of the correlation coefficients r^2 calculated for both calixarenes in a wide concentration range depict that GCR-2 has a greater ability to aggregate than GCR-1. […] Probably, the short methyl groups fail to form a nonpolar core capable of incorporating hydrophobic guests. […]
Hydrophobic dye solubilization was carried out by adding an excess of Sudan I to solutions. […] They were filtered, and Sudan I absorbance was measured at 486 nm using a Specord 250 Plus spectrophotometer (Analytic Jena, Jena, Germany) using a 1 mm optical path length quartz cell. Dye absorbance was obtained by subtraction of the contribution of macrocycle to the summary spectrum. Each absorbance spectrum was obtained three times, and the absorbance intensities were within 2–3%.

Chang liver cell line = assay: Cell viability evaluation (Cytell Cell Imaging); format: cell-based; settings: 50% inhibition of cell growth, human hepatocytes, read-out: IC50 on Chang Liver Cells Line
Experimental: Cell viability of human hepatocytes cells (Chang liver cell line from the N. F. Gamaleya Research Center of Epidemiology and Microbiology) toward macrocycles was determined by means of multifunctional system Cytell Cell Imaging (GE Healthcare, Issaquah, WA, USA) using application Cell Viability BioApp and Automated Imaging BioApp. The cells were dispersed on a 96-well plate at a concentration of 200,000 cells/mL and cultivated in CO2-incubator at 37 °C. Next, the culture medium was sampled in 24 h, and 150 μL of the studied dispersions was added to each well. The experiments were repeated three times. Intact cells cultivated simultaneously with the studied ones served as a reference. The fraction of the grown-up cells was expressed in % vs. reference cells. Degree of cell growth inhibition under the influence of testing agent was calculated by equation:N (%) = (1 − Exp/Control) × 100(1) where Exp is the quantity of uninhibited cells in sample studied, Control is the quantity of uninhibited cells in control sample. Then the IC50 (concentration which caused 50% cell growth inhibition) was determined from curve of cell cultural growth versus macrocycle concentration. The experiments were repeated three times and results are presented as the mean ± standard deviation.

For `CC1c2cc(c(O)c(CN(C)C[C@@H](O)[C@H](O)[C@@H](O)[C@@H](O)CO)c2O)C(C)c2cc(c(O)c(CN(C)C[C@@H](O)[C@H](O)[C@@H](O)[C@@H](O)CO)c2O)C(C)c2cc(c(O)c(CN(C)C[C@@H](O)[C@H](O)[C@@H](O)[C@@H](O)CO)c2O)C(C)c2cc1c(O)c(CN(C)C[C@@H](O)[C@H](O)[C@@H](O)[C@@H](O)CO)c2O` (stereo partly drawn) [GCR-2, N-methyl-D-glucaminemethyl methylcalix[4]resorcinarene], the MIC (C.albicans 855–653) was > 500 µM, the Zeta-potential of aggregates [1] was −17.4 mV and the Hydrodynamic diameter ([2]; 15 mM GCR-2–30 mM MG mixed system) was 3.8 nm. The Hydrodynamic diameter ([2]; mixed 1 mM GCR-2–2 mM MG system) was 2 nm, the “Solubilization of hydrophobic dye Sudan I” value [3] was “do not solubilize the hydrophobic Sudan I” and the IC50 (Chang liver cell line) was > 100 µM.
